In US20250214951A1, “3-PHENYLISOXAZOLE DERIVATIVE, AND PHARMACEUTICAL COMPOSITION FOR PREVENTING OR TREATING EYE DISEASE, CONTAINING SAME AS ACTIVE INGREDIENT” (VASTHERA CO., LTD., priority 2022, published 2025) one finds inhibition and fold induction data, which are given here for 36 molecules.

Each structure is given as a SMILES string.

By fold induction is commonly meant the signal under treatment as a multiple of the control signal.

In the first assay the test system is A2E-BDP present in human retinal pigment epithelial cells (ARPE-19). The assay is described as follows: Screening of ability to remove A2E-fluorescent labeling substance (A2E-BDP), lysate fluorescence. The settings on record: ARPE-19, 24 h, ARPE-19 loaded with 10 μM A2E-BDP 24 h, test compound 50 μM once, fluorescence ex 485/em 535 nm, read-out: Capacity (%) to remove A2E-BDP at 50 μM. It counts as cell-based. As for the experimental part: The human retinal pigment epithelial cell line (ARPE-19) used in the experiment was provided by ATCC (American Type Culture Collection). The ARPE-19 cell line was cultured in DMEM medium containing 10% FBS. After culture, the cells were dispensed into 96-well plates at a concentration of 4×10^3 cells/well and cultured for 24 hours. The ARPE-19 cell line was treated with A2E-fluorescent labeling substance (A2E-BDP) at a concentration of 10 μM for 24 hours to induce the accumulation of A2E-BDP in the ARPE-19 cell line.
In order to evaluate the intracellular A2E removal ability of the compound of the present invention, an easily detectable A2E-fluorescent labeling substance (A2E-BDP) was used. The ARPE-19 cells prepared by the above method were treated with each test compound at a concentration of 50 μM once, and then cultured for 24 hours. The cells were lysed by adding a cell lysis buffer containing a protease inhibitor (50 mM Tris-chloride, pH 8.0, 150 mM sodium chloride, 1% NP-40, 1% sodium deoxycholate, 1% sodium dodecyl sulfate, and 2 mM ethylenediamine tetraacetic acid) to each 96-well. The prepared cell lysate was transferred to a white 96-well plate, and the fluorescence intensity was measured using a fluorescence microplate reader (VICTOR™ X3, Perkin Elmer, USA) (excitation 485 nm, emission 535 nm).
`CCCc1cc(-c2cc(Br)ccc2OC)no1` [Example 1, 3-(5-bromo-2-methoxyphenyl)-5-propylisoxazole]: the inhibition at 50 µM came to 20.8%. The same measure, in the same setting: the same measure for `CCOC(=O)COCc1cc(-c2cc(Br)ccc2OC)no1` [Example 12, ethyl 2-((3-(5-bromo-2-methoxyphenyl)isoxazole-5-yl)methoxy)acetate]: 21.7%; for `CCCc1ccc(OC)c(-c2cc(COC)on2)c1` [Example 20, 3-(2-methoxy-5-propylphenyl)-5-(methoxymethyl)isoxazole]: 17.2%. Still for that read-out and setting: the same measure for `CCCc1ccc(O)c(-c2cc(CCC)on2)c1` [Example 6, 4-propyl-2-(5-propylisoxazole-3-yl)phenol]: 24%.

The test system of the next assay is LC3-II. Put plainly: LC3-II production capacity at 10 μM (Table 4). It is filed as cell-based. The settings on record: Homo sapiens, 12 h. Here is the method: ARPE-19 was dispensed into a 6-well plate at a concentration of 1×10^5 cells/well and cultured for 24 hours. Then, cells were treated with example 17 compound of the present invention at concentrations of 10, 25, and 50 μM for 12 hours. Then, a cell lysis buffer containing a protease inhibitor was added to prepare a cell lysate. The LC3-II level was measured by Western immunoblotting using an anti-LC3-II antibody (Cell Signaling Technology, MA, USA). As an internal control, an antibody against β-actin (Cell Signaling Technology) was used and measured by Western immunoblotting in the same manner as above, and is shown in FIG. 6 (upper graph).
The autophagy activation effect of example compounds expected to have autophagy activation ability and low cytotoxicity among the example compounds in Table 2 above in human retinal pigment epithelial cells was evaluated according to Experimental Example 7. That is, the autophagy activation effect through the increase of LC3-II was evaluated in a concentration-dependent manner, and the results are shown in FIGS. 15 and 16.
Take `COc1ccc(C(F)(F)F)cc1-c1cc(CN2CCN(C)C(=O)C2)on1` [Example 37, 4-((3-(2-methoxy-5-(trifluoromethyl)phenyl)isoxazole-5-yl)methyl)-1-methylpiperazine-2-on]: the fold induction at 10 µM worked out at 2.2. `COc1ccc(C(F)(F)F)cc1-c1cc(CO)on1` [Example 31, (3-(2-methoxy-5-(trifluoromethyl)phenyl)isoxazole-5-yl)methanol]: the fold induction at 10 µM worked out at 0.8. On the same count and under the same terms, the same measure for `COc1ccc(C(C)C)cc1-c1cc(CN2CCN(C(=O)OC(C)(C)C)CC2)on1` [Example 46, tert-butyl 4-((3-(5-isopropyl-2-methoxyphenyl)isoxazole-5-yl)methyl)piperazine-1-carboxylate]: 1.5; for `C=CCc1ccc(-c2cc(CN3CCN(C(=O)OC(C)(C)C)CC3)on2)c(OC)c1` [Example 48, tert-butyl 4-((3-(4-allyl-2-methoxyphenyl)isoxazole-5-yl)methyl)piperazine-1-carboxylate]: above 15.

Consider `C=CCc1ccc(OC)c(-c2cc(C(C)(C)O)on2)c1` [Example 39, 2-(3-(5-allyl-2-methoxyphenyl)isoxazole-5-yl)propan-2-ol], for which the fold induction at 10 µM amounted to 0.7. On the same count and under the same terms, in the case of `C=CCc1ccc(OC(F)(F)F)c(-c2cc(CN3CCN(C(=O)OC(C)(C)C)CC3)on2)c1` [Example 50, tert-butyl 4-((3-(5-allyl-2-(trifluoromethoxy)phenyl)isoxazole-5-yl)methyl)piperazine-1-carboxylate] it was above 25; in that of `COc1ccc(C(F)(F)F)cc1-c1cc(COCC(=O)O)on1` [Example 36, 2-((3-(2-methoxy-5-(trifluoromethyl)phenyl)isoxazole-5-yl)methoxy)acetic acid], 2.3; in that of `CCCc1ccc(OC)c(-c2cc(CN3CCc4sccc4C3)on2)c1` [Example 56, 5-((6,7-dihydrothieno[3,2-c]pyridin-5(4H)-yl)methyl)-3-(2-methoxy-5-propylphenyl)isoxazole], 1.5. In the case of `C=C(C)Cc1ccc(OC)c(-c2cc(CO)on2)c1` [Example 68, (3-(2-methoxy-5-(2-methylallyl)phenyl)isoxazole-5-yl)methanol], the fold induction at 10 µM worked out at 7.7.

Regarding `COc1ccc(C(C)C)cc1-c1cc(CO)on1` [Example 45, (3-(5-isopropyl-2-methoxyphenyl)isoxazole-5-yl)methanol], the fold induction at 10 µM was found to be 2.5. The same measure, in the same setting: in the case of `COc1ccc(C(C)C)cc1-c1cc(CN2CCN(C(C)=O)CC2)on1` [Example 63, 1-(4-((3-(5-isopropyl-2-methoxyphenyl)isoxazole-5-yl)methyl)piperazine-1-yl)ethan-1-on] it was 1.9. Take `COCCc1ccc(OC)c(-c2cc(CN3CCN(C)CC3)on2)c1` [Example 62, 3-(2-methoxy-5-(2-methoxyethyl)phenyl)-5-((4-methylpiperazine-1-yl)methyl)isoxazole]: the fold induction at 10 µM is 2.4. As for `CCCc1ccc(OC)c(-c2cc(C(C)(C)O)on2)c1` [Example 40, 2-(3-(2-methoxy-5-propylphenyl)isoxazole-5-yl)propan-2-ol], the fold induction at 10 µM is 1.6. The same measure, in the same setting: in the case of `C=CCc1ccc(OC(F)(F)F)c(-c2cc(CN3CCN(C)CC3)on2)c1` [Example 52, 3-(5-allyl-2-(trifluoromethoxy)phenyl)-5-((4-methylpiperazine-1-yl)methyl)isoxazole] it was above 13. For the molecule `C=CCc1ccc(-c2cc(CO)on2)c(OC)c1` [Example 44, (3-(4-allyl-2-methoxyphenyl)isoxazole-5-yl)methanol], the fold induction at 10 µM was 3.8. On the same count and under the same terms, the same measure for `COc1ccc(CC=C(C)C)cc1-c1cc(CN2CCN(C)CC2)on1` [Example 69, 3-(2-methoxy-5-(3-methylbut-2-en-1-yl)phenyl)-5-((4-methylpiperazine-1-yl)methyl)isoxazole]: 5; for `COc1ccc(CCO)cc1-c1cc(CN2CCN(C)CC2)on1` [Example 61, 2-(4-methoxy-3-(5-((4-methylpiperazine-1-yl)methyl)isoxazole-3-yl)phenyl)ethan-1-ol]: 0.9; for `C=CCc1ccc(OC(F)(F)F)c(-c2cc(CN3CCNCC3)on2)c1` [Example 51, 3-(5-allyl-2-(trifluoromethoxy)phenyl)-5-(piperazine-1-ylmethyl)isoxazole]: above 15. For the molecule `CCCc1ccc(OC)c(-c2cc(CN3C[C@@H](C)O[C@@H](C)C3)on2)c1` [Example 53, (2S,6R)-4-((3-(2-methoxy-5-propylphenyl)isoxazole-5-yl)methyl)-2,6-dimethylmorpholine], the fold induction at 10 µM is 0.9. `COc1cc(C(F)(F)F)ccc1-c1cc(CO)on1` [Example 35, (3-(2-methoxy-4-(trifluoromethyl)phenyl)isoxazole-5-yl)methanol]: the fold induction at 10 µM is 1.1.

With `CCCc1ccc(OC)c(-c2cc(CN3CCC(C(=O)O)CC3)on2)c1` [Example 55, 1-((3-(2-methoxy-5-propylphenyl)isoxazole-5-yl)methyl)piperidine-4-carboxylic acid], the fold induction at 10 µM worked out at 1.8. `C=CCc1ccc(OC)c(-c2cc(CN3CCNCC3)on2)c1` [Example 29, 3-(5-allyl-methoxyphenyl)-5-(piperazine-1-ylmethyl)isoxazole]: the fold induction at 10 µM amounted to 5.8. As to `COc1ccc(C(F)(F)F)cc1-c1cc(C(C)(C)O)on1` [Example 32, 2-(3-(2-methoxy-5-(trifluoromethyl)phenyl)isoxazole-5-yl)propan-2-ol], the fold induction at 10 µM is 0.9. Take `CCCc1ccc(OC)c(-c2cc(CN3CCn4ccnc4C3)on2)c1` [Example 57, 5-((5,6-dihydroimidazo[1,2-a]pyrazin-7(8H)-yl)methyl)-3-(2-methoxy-5-propylphenyl)isoxazole]: the fold induction at 10 µM is 1.1. For `C=CCc1ccc(-c2cc(CN3CCNCC3)on2)c(OC)c1` [Example 49, 3-(4-allyl-2-methoxyphenyl)-5-(piperazine-1-ylmethyl)isoxazole], the fold induction at 10 µM worked out at 1.1. The same measure, in the same setting: in the case of `CCCc1ccc(OC)c(-c2cc(CN3CCC(OC)CC3)on2)c1` [Example 54, 3-(2-methoxy-5-propylphenyl)-5-((4-methoxypiperidine-1-yl)methyl)isoxazole] it was 2.8; in that of `COc1ccc(C(F)(F)F)cc1-c1cc(CCO)on1` [Example 33, 2-(3-(2-methoxy-5-(trifluoromethyl)phenyl)isoxazole-5-yl)ethan-1-ol], 1.5. On to `C=CCc1ccc(OC(F)(F)F)c(-c2cc(CO)on2)c1` [Example 43, (3-(5-allyl-2-(trifluoromethoxy)phenyl)isooxazole-5-yl)methanol], for which the fold induction at 10 µM was 19.7. In the case of `C=C(C)Cc1ccc(OC)c(-c2cc(CN3CCN(C(=O)OC(C)(C)C)CC3)on2)c1` [Example 66, tert-butyl 4-((3-(2-methoxy-5-(2-methylallyl)phenyl)isoxazole-5-yl)methyl)piperazine-1-carboxylate], the fold induction at 10 µM was above 18. As for `COc1ccc(N2CCOCC2)cc1-c1cc(CO)on1` [Example 38, (3-(2-methoxy-5-morpholinophenyl)isoxazole-5-yl)methanol], the fold induction at 10 µM is 1.2.

Take `C=CCc1ccc(OC)c(-c2cc(COc3ncnc4ccccc34)on2)c1` [Example 65, 3-(5-allyl-2-methoxyphenyl)-5-((quinazoline-4-yloxy)methyl)isoxazole]: the fold induction at 10 µM came out at 1.8. For `C=C(C)Cc1ccc(OC)c(-c2cc(CN3CCNCC3)on2)c1` [Example 67, 3-(2-methoxy-5-(2-methylallyl)phenyl)-5-(piperazine-1-ylmethyl)isoxazole], the fold induction at 10 µM came to 22.7.
